Tested on: patients with relapsing multiple sclerosis
Assay: Phase 2b dose-finding study: adverse events (TEAEs, SAEs, AESIs), safety population
Details: for Proportion of participants with TEAEs: BTK inhibitor treatment period (12 weeks); for Adverse event: Accidental overdose / Adverse event: Alanine aminotransferase increased / Adverse event: Alopecia / Adverse event: Back pain / Adverse event: Gastroenteritis / Adverse event: Headache / Adverse event: Muscle spasticity / Adverse event: Nasopharyngitis / Adverse event: Oropharyngeal pain / Adverse event: Peripheral edema / Adverse event: Respiratory tract infection / Adverse event: Upper respiratory tract infection: 12 weeks treatment
[1] = 15 mg, 12-week treatment period
[2] = 30 mg, 12-week treatment period
[3] = 60 mg, 12-week treatment period
[4] = All (N = 130), BTK inhibitor treatment period, safety population
[5] = All Dose Groups (N = 130), Weeks 1 to 12
[6] = BTK inhibitor 5 (N = 16), Weeks 1 to 4
[7] = BTK inhibitor 5 (N = 33), BTK inhibitor treatment period, safety population
[8] = BTK inhibitor 15 (N = 16), Weeks 1 to 4
[9] = BTK inhibitor 15 (N = 32), BTK inhibitor treatment period, safety population
[10] = BTK inhibitor 30 (N = 16), Weeks 1 to 4
[11] = BTK inhibitor 30 (N = 33), BTK inhibitor treatment period, safety population
[12] = BTK inhibitor 60 (N = 16), Weeks 1 to 4
[13] = BTK inhibitor 60 (N = 32), BTK inhibitor treatment period, safety population
[14] = BTKi 5 mg (N = 16), Weeks 1 to 4
[15] = BTKi 5 mg (n = 33), Weeks 1 to 12

C=CC(=O)N1CCC[C@@H](n2c(=O)n(-c3ccc(Oc4ccccc4)cc3)c3c(N)nccc32)C1 [the BTK inhibitor, (R)-1-(1-acryloylpiperidin-3-yl)-4-amino-3-(4-phenoxyphenyl)-1H-imidazo[4,5-c]pyridin-2(3H)-one]
Alanine aminotransferase increased (TEAE) (5 mg, 12-week treatment period): 1 | Alopecia (TEAE) (5 mg, 12-week treatment period): 1 | Back pain (TEAE) (5 mg, 12-week treatment period): 1 | Gastroenteritis (TEAE) (5 mg, 12-week treatment period): 1 | Headache (TEAE) (5 mg, 12-week treatment period): 1 | Nasopharyngitis (TEAE) (5 mg, 12-week treatment period): 1 | Oedema peripheral (TEAE) (5 mg, 12-week treatment period): 2 | Oropharyngeal pain (TEAE) (5 mg, 12-week treatment period): 1 | Upper respiratory tract infection (TEAE) (5 mg, 12-week treatment period): 2 | Proportion of participants with TEAEs (5 mg): 57.6% | Headache (TEAE) (5 mg, Weeks 1 to 4): 3 cases | Nausea (TEAE) (5 mg, Weeks 1 to 4): 2 cases | Proportion of participants who experienced TEAEs (5 mg, Weeks 1 to 4): 31.3% | Alopecia (TEAE) [1]: 1 | Back pain (TEAE) [1]: 1 | Headache (TEAE) [1]: 3 | Respiratory tract infection (TEAE) [1]: 1 | Upper respiratory tract infection (TEAE) [1]: 2 | Proportion of participants with TEAEs (15 mg): 53.1% | Headache (TEAE) (15 mg, Weeks 1 to 4): 2 cases | Proportion of participants who experienced TEAEs (15 mg, Weeks 1 to 4): 18.8% | AESIs (alanine aminotransferase increased >3×ULN) (30 mg treatment period): 1 | Alanine aminotransferase increased (TEAE) [2]: 1 | Back pain (TEAE) [2]: 2 | Headache (TEAE) [2]: 1 | Muscle spasticity (TEAE) [2]: 1 | Nasopharyngitis (TEAE) [2]: 1 | Oropharyngeal pain (TEAE) [2]: 1 | Respiratory tract infection (TEAE) [2]: 1 | Upper respiratory tract infection (TEAE) [2]: 1 | Proportion of participants with TEAEs (30 mg): 54.5% | Nausea (TEAE) (30 mg, Weeks 1 to 4): 1 cases | Proportion of participants who experienced TEAEs (30 mg, Weeks 1 to 4): 12.5% | Severe TEAEs (60 mg group, all other TEAEs mild or moderate): one | AESIs (alanine aminotransferase increased >3×ULN) (60 mg treatment period): 1 | Treatment-emergent SAEs (MS relapse) (60 mg, Cohort 1, about 8 weeks after starting treatment): One | Accidental overdose (TEAE) [3]: 3 | Alanine aminotransferase increased (TEAE) [3]: 1 | Alopecia (TEAE) [3]: 1 | Gastroenteritis (TEAE) [3]: 2 | Headache (TEAE) [3]: 4 | Muscle spasticity (TEAE) [3]: 2 | Nasopharyngitis (TEAE) [3]: 3 | Oedema peripheral (TEAE) [3]: 2 | Oropharyngeal pain (TEAE) [3]: 1 | Respiratory tract infection (TEAE) [3]: 1 | Upper respiratory tract infection (TEAE) [3]: 1 | Proportion of participants with TEAEs (60 mg): 50.0% | Headache (TEAE) (60 mg, Weeks 1 to 4): 1 cases | Proportion of participants who experienced TEAEs (60 mg, Weeks 1 to 4): 31.3% | Correlation between dose administered and number of TEAEs (5-60 mg): no direct correlation | Tolerability (5-60 mg once daily, over the 12 weeks of treatment): well-tolerated | AESI: Alanice aminotransferase increased [4]: 2 (1.5) n (%) | AESI: Investigations [4]: 2 (1.5) n (%) | Any AESI [4]: 2 (1.5) n (%) | Participants with any TEAE [4]: 69 (53.1) n (%) | Participants with any TEAE leading to death [4]: 0 n (%) | Participants with any TEAE leading to study treatment discontinuation [4]: 0 n (%) | Participants with any severe TEAE [4]: 1 (0.8) n (%) | Participants with any treatment emergent SAE [4]: 1 (0.8) n (%) | Participants with any treatment-related TEAE [4]: 15 (11.5) n (%) | Participants with study discontinuation due to any TEAE [4]: 0 n (%) | Participants with treatment emergent SAE(s): Any class [4]: 1 (0.8) n(%) | Participants with treatment emergent SAE(s): Multiple sclerosis relapse [4]: 1 (0.8) n(%) | Participants with treatment emergent SAE(s): NERVOUS SYSTEM DISORDERS [4]: 1 (0.8) n(%) | Participants with any TEAE leading to death (All (N = 130), Weeks 1 to 4): 0 n (%) | Participants with any TEAE leading to study treatment discontinuation (All (N = 130), Weeks 1 to 4): 0 n (%) | Participants with any severe TEAE (All (N = 130), Weeks 1 to 4): 0 n (%) | Participants with any treatment emergent SAE (All (N = 130), Weeks 1 to 4): 0 n (%) | Participants with study discontinuation due to any TEAE (All (N = 130), Weeks 1 to 4): 0 n (%) | Adverse event: Accidental overdose (All Dose Groups (N = 130)): 3 (2%) | Adverse event: Alanine aminotransferase increased (All Dose Groups (N = 130)): 3 (2%) | Adverse event: Alopecia (All Dose Groups (N = 130)): 3 (2%) | Adverse event: Back pain (All Dose Groups (N = 130)): 4 (3%) | Adverse event: Gastroenteritis (All Dose Groups (N = 130)): 3 (2%) | Adverse event: Headache (All Dose Groups (N = 130)): 9 (7%) | Adverse event: Muscle spasticity (All Dose Groups (N = 130)): 3 (2%) | Adverse event: Nasopharyngitis (All Dose Groups (N = 130)): 5 (4%) | Adverse event: Oropharyngeal pain (All Dose Groups (N = 130)): 3 (2%) | Adverse event: Peripheral edema (All Dose Groups (N = 130)): 4 (3%) | Adverse event: Respiratory tract infection (All Dose Groups (N = 130)): 3 (2%) | Adverse event: Upper respiratory tract infection (All Dose Groups (N = 130)): 6 (5%) | AE leading to death [5]: 0 n (%) | AE leading to study discontinuation [5]: 0 n (%) | Any AE (4 weeks vs. placebo 12 weeks) [5]: 70 (53.8) n (%) | Any AE leading to study treatment discontinuation [5]: 0 n (%) | Any treatment-related AE [5]: 17 (13.1) n (%) | Serious AE [5]: 1 (0.8) n (%) | AESI: Alanice aminotransferase increased [6]: 0 n (%) | AESI: Investigations [6]: 0 n (%) | Any AESI [6]: 0 n (%) | AESI: Investigations [7]: 0 n (%) | Any AESI [7]: 0 n (%) | AESI: Alanice aminotransferase increased (BTK inhibitor 5, BTK inhibitor treatment period, safety population): 0 n (%) | AESI: Alanice aminotransferase increased [8]: 0 n (%) | AESI: Investigations [8]: 0 n (%) | Any AESI [8]: 0 n (%) | AESI: Alanice aminotransferase increased [9]: 0 n (%) | AESI: Investigations [9]: 0 n (%) | Any AESI [9]: 0 n (%) | AESI: Alanice aminotransferase increased [10]: 0 n (%) | AESI: Investigations [10]: 0 n (%) | Any AESI [10]: 0 n (%) | AESI: Alanice aminotransferase increased [11]: 1 (3.0) n (%) | AESI: Investigations [11]: 1 (3.0) n (%) | Any AESI [11]: 1 (3.0) n (%) | AESI: Alanice aminotransferase increased [12]: 0 n (%) | AESI: Investigations [12]: 0 n (%) | Any AESI [12]: 0 n (%) | AESI: Alanice aminotransferase increased [13]: 1 (3.1) n (%) | AESI: Investigations [13]: 1 (3.1) n (%) | Any AESI [13]: 1 (3.1) n (%) | Participants with any TEAE (BTK inhibitor treatment period, safety population): 18 (54.5) n (%) | AE leading to death [14]: 0 | AE leading to study discontinuation [14]: 0 | Any AE leading to study treatment discontinuation [14]: 0 | Serious AE [14]: 0 | Adverse event: Accidental overdose (BTKi 5 mg (n = 33)): 0% | Adverse event: Alanine aminotransferase increased (BTKi 5 mg (n = 33)): 1 (3%) | Adverse event: Alopecia (BTKi 5 mg (n = 33)): 1 (3%) | Adverse event: Back pain (BTKi 5 mg (n = 33)): 1 (3%) | Adverse event: Gastroenteritis (BTKi 5 mg (n = 33)): 1 (3%) | Adverse event: Headache (BTKi 5 mg (n = 33)): 1 (3%) | Adverse event: Muscle spasticity (BTKi 5 mg (n = 33)): 0% | Adverse event: Nasopharyngitis (BTKi 5 mg (n = 33)): 1 (3%) | Adverse event: Oropharyngeal pain (BTKi 5 mg (n = 33)): 1 (3%) | Adverse event: Peripheral edema (BTKi 5 mg (n = 33)): 2 (6%) | Adverse event: Respiratory tract infection (BTKi 5 mg (n = 33)): 0% | Adverse event: Upper respiratory tract infection (BTKi 5 mg (n = 33)): 2 (6%) | AE leading to death [15]: 0 n (%) | AE leading to study discontinuation [15]: 0 n (%) | Any AE (4 weeks vs. placebo 12 weeks) [15]: 19 (57.6) n (%) | Any AE leading to study treatment discontinuation [15]: 0 n (%)
